Results: patent US11014917B2, “5-fluoro-c-(aryl or heterocyclyl)-glycoside derivatives useful as dual SGLT1 / SGLT2 modulators” (Janssen Pharmaceutica NV, priority 2017, dated 2021)

Columns and labels:
human SGLT1 = target: T1, human SGLT1 (Homo sapiens, UniProt P13866); assay: SGLT1 assay: Na-dependent 14C-AMG uptake in CHO-K1 cells stably expressing human SGLT1; type: cell-based; details: for IC50: average if tested more than once; for SGLT1 %-inhibition: @ 0.3 μM
T1 construct: expressed in transfected cells
T1 sequence (P13866 1-664): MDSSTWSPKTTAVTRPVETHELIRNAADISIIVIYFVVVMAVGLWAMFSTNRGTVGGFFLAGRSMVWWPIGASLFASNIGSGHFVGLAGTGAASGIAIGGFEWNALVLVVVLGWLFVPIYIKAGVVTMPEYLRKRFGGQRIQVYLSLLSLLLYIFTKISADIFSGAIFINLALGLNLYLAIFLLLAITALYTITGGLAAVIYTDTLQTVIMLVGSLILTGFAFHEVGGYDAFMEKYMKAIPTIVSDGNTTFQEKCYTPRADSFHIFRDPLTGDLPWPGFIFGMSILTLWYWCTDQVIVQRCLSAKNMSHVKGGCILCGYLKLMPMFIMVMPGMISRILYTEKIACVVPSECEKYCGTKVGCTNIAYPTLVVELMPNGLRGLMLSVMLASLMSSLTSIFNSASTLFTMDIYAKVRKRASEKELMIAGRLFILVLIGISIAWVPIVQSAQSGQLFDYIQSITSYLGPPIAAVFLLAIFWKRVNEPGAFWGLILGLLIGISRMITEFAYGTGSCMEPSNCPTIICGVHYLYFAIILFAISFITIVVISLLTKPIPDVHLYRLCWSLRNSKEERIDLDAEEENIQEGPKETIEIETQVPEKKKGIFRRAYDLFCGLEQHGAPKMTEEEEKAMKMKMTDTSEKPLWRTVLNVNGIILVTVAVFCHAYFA
Protocol: (§1) The ability of the compounds of formula (I) of the present invention to treat an SGLT-mediated condition was determined using the following procedures:
(§2) SGLT1 and SGLT2 were cloned in form of cDNA from human small intestine (Genbank M24847), and from human kidney (Genbank M95549), respectively. Subsequently, each full cDNA was subcloned into pcDNA with each construct's integrity verified through follow-on sequencing. To generate CHO-K1 cells that stably express human SGLT1 or human SGLT2, CHO-K1 cells were transfected using DMRIE-C reagent (Life Technologies, Gaithersburg, Md.). Transfected cells were then selected in the presence of 500 μg/ml of the Geneticin (G418 Cellgro Catalog No. 30234-Cl)
(§3) Individual clones were then characterized using the following cell-based assay for sodium-dependent glucose transport:
(§4) Inhibition of SGLT1 and SGLT2 activity was assessed in CHO K1 cells stably expressing either human SGLT1 or SGLT2, using the SGLT specific glucose analog methyl-glucopyranoside (Sigma Catalog No. M-9376). Cells were plated (45,000 cells/well) in white wall 96-well plates (COSTAR, Cat #3903) for 24 hours in growth medium, then a final concentration of 10 mM Na-Butyrate (ALDRICH Cat #30341-0) was added. The cells were incubated for 24 hours. On the day of the assay, cells were rinsed and treated with test compounds (at concentrations of 0.001 μM to 10 μM) in assay buffer (50 mM HEPES, 20 mM Tris base, 5 mM KCl, 1 mM MgCl2, 1 mM CaCl2 and 137 mM NaCl, pH 7.4) for 10 minutes. Cells were then incubated with ^14C-a-methyl-d-glucopyranoside (AMG, Amersham Catalog No. CFB 76), using 0.07 μCi per well in 500 μM AMG final concentration. The cells were incubated for 2 hours at 37° C. with 5% CO2 and washed two times with ice-cold Phosphate Buffer Solution (Cellgro Catalog No. 21030-CV). The cells were then solubilized by adding 60 μl of MICROSCINT™20 and the Na-dependent ^14C-AMG uptake was quantified by measuring radioactivity. Plates were counted in a TopCount (Packard, Meriden, Conn.)
(§5) Representative compounds of the present invention were tested according to the procedures as described in Biological Example 1 and 2 above, with results as listed in Table 5, below. Results are reported as the %-inhibition or IC50 value. Variability for the functional assay was typically within 20%.

human SGLT2 = target: T2, human SGLT2 (Homo sapiens, UniProt P31639); assay: SGLT2 assay: Na-dependent 14C-AMG uptake in CHO-K1 cells stably expressing human SGLT2; type: cell-based; details: for IC50: average if tested more than once; for SGLT2 %-inhibition: @ 0.3 μM
T2 construct: expressed in transfected cells
T2 sequence (P31639 1-672): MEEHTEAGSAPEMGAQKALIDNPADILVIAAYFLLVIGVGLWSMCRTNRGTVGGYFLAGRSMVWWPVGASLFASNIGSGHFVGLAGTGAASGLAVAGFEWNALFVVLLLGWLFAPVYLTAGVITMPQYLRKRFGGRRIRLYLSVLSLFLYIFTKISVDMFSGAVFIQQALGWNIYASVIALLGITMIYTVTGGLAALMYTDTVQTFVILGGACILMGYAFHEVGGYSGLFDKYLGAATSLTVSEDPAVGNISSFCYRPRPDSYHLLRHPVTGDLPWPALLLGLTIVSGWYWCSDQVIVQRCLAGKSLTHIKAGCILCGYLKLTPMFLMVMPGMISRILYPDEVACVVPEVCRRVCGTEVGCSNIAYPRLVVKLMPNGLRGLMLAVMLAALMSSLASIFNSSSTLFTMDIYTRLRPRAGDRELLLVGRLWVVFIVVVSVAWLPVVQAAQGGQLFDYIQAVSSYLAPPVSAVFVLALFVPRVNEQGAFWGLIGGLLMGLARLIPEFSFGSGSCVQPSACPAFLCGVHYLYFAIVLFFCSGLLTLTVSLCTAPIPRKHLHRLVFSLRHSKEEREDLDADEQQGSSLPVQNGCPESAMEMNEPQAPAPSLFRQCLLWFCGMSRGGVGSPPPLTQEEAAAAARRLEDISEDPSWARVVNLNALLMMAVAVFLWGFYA
Protocol: as §1, §2, §3, §4, §5

Compound | IC50 (human SGLT1) | IC50 (human SGLT2) | SGLT1 %-inhibition (human SGLT1) | SGLT2 %-inhibition (human SGLT2)
Cc1cc(O)c([C@@H]2O[C@H](C)[C@@H](F)[C@H](O)[C@H]2O)cc1Cc1cc2ccccc2s1 [Compound 16, (2S,3R,4R,5S,6R)-2-(5-(benzo[b]thiophen-2-ylmethyl)-2-hydroxy-4-methylphenyl)-5-fluoro-6-methyl-tetrahydro-2H-pyran-3,4-diol] | 111 nM | 29 nM |  | 
COc1cc(Cl)c(Cc2cc3c(s2)CCN(C(C)=O)C3)cc1[C@@H]1O[C@H](CO)[C@@H](F)[C@H](O)[C@H]1O [Compound 77] |  |  | 30.3% @ 0.3 μM | 69.9% @ 0.3 μM
[2H]C([2H])(c1ccc2c(c1)OC([2H])([2H])C([2H])([2H])O2)c1cc([C@@H]2O[C@H](CO)[C@@H](F)[C@H](O)[C@H]2O)ccc1CC [Compound 176] |  |  | 68.9% @ 0.3 μM | 56.1% @ 0.3 μM
COc1c([C@@H]2O[C@H](CO)[C@@H](F)[C@H](O)[C@H]2O)cc(Cc2ccc3c(c2)SCCO3)c2c1CCO2 [Compound 107, (2S,3R,4R,5S,6R)-2-(7-((2,3-dihydrobenzo[b][1,4]oxathiin-6-yl)methyl)-4-methoxy-2,3-dihydrobenzofuran-5-yl)-5-fluoro-6-(hydroxymethyl)-tetrahydro-2H-pyran-3,4-diol] | 163 nM | 8 nM |  | 
COc1cc(Cl)c([C@@H]2O[C@H](CO)[C@@H](F)[C@H](O)[C@H]2O)cc1Cc1cc2ccccc2s1 [Compound 21] | 313 nM | 112 nM |  | 
COC[C@H]1O[C@@H](c2cc(Cc3cc4ccccc4s3)c(OC)cc2O)[C@H](O)[C@@H](O)[C@@H]1F [Compound 9, (2S,3R,4R,5S,6R)-2-[5-(1-benzothiophen-2-ylmethyl)-2-hydroxy-4-methoxyphenyl]-5-fluoro-6-(methoxymethyl)oxane-3,4-diol] | 126 nM | 107 nM |  | 
Cc1cnc(N2CCc3sc(Cc4cc([C@@H]5O[C@H](CO)[C@@H](F)[C@H](O)[C@H]5O)ccc4C)cc3C2)s1 [Compound 113] |  |  | 21.0% @ 0.3 μM | 53.9% @ 0.3 μM
[2H]C([2H])(c1ccc2c(c1)OCCO2)c1cc([C@@H]2O[C@H](CO)[C@@H](F)[C@H](O)[C@H]2O)ccc1C [Compound 167] |  |  | 37.9% @ 0.3 μM | 80.1% @ 0.3 μM
COC(=O)N1CCc2sc(Cc3cc([C@@H]4O[C@H](CO)[C@@H](F)[C@H](O)[C@H]4O)c(OC)cc3OC)cc2C1 [Compound 83] |  |  | 17.4% @ 0.3 μM | 72.3% @ 0.3 μM
CCc1ccc(Cc2cc([C@@H]3O[C@H](CO)[C@@H](F)[C@H](O)[C@H]3O)c(O)c3c2OCC3)cc1 [Compound 62] | 48 nM | 4 nM |  | 
Cc1cc(O)c([C@@H]2O[C@H](CO)[C@@H](F)[C@H](O)[C@H]2O)cc1Cc1cc2c(s1)C(=O)CCO2 [Compound 129] | 176 nM | 7 nM |  | 
CCc1cc(OC)c([C@@H]2O[C@H](CO)[C@@H](F)[C@H](O)[C@H]2O)cc1Cc1cc2c(s1)CCN(C#N)C2 [Compound 115] |  |  | 35.6% @ 0.3 μM | 79.3% @ 0.3 μM
COc1cc(C)c(Cc2cc3c(s2)CCN(C(=O)C2CCCC2)C3)cc1[C@@H]1O[C@H](CO)[C@@H](F)[C@H](O)[C@H]1O [Compound 91] |  |  | 31.7% @ 0.3 μM | 65.5% @ 0.3 μM
COc1cc(O)c([C@@H]2O[C@H](CO)[C@@H](F)[C@H](O)[C@H]2O)cc1Cc1cc2ccccc2s1 [Compound 2, (2S,3R,4R,5S,6R)-2-(5-(benzo[b]thiophen-2-ylmethyl)-2-hydroxy-4-methoxyphenyl)-5-fluoro-6-(hydroxymethyl)tetrahydro-2H-pyran-3,4-diol] | 9 nM | 8 nM |  | 
[2H]C1([2H])Oc2ccc(Cc3cc([C@@H]4O[C@H](CO)[C@@H](F)[C@H](O)[C@H]4O)ccc3CC)cc2OC1([2H])[2H] [Compound 175] | 87 nM | 12 nM |  | 
Cc1cc(O)c([C@@H]2O[C@H](CF)[C@@H](F)[C@H](O)[C@H]2O)cc1Cc1cc2ccccc2s1 [Compound 20, (2S,3R,4R,5S,6R)-2-(5-(benzo[b]thiophen-2-ylmethyl)-2-hydroxy-4-methylphenyl)-5-fluoro-6-(fluoromethyl)-tetrahydro-2H-pyran-3,4-diol] | 114 nM | 402 nM |  | 
Cc1cc(O)c([C@@H]2O[C@H](CO)[C@@H](F)[C@H](O)[C@H]2O)cc1Cc1cc2c(s1)CCN(C(=O)c1nccs1)C2 [Compound 84, (2-(5-((2S,3R,4R,5S,6R)-5-fluoro-3,4-dihydroxy-6-(hydroxymethyl)-tetrahydro-2H-pyran-2-yl)-4-hydroxy-2-methylbenzyl)-6,7-dihydrothieno[3,2-c]pyridin-5(4H)-yl)(thiazol-2-yl)methanone] | 101 nM | 36 nM |  | 
COc1cc(O)c([C@@H]2O[C@H](C)[C@@H](F)[C@H](O)[C@H]2O)cc1Cc1cc2ccccc2s1 [Compound 10] | 85 nM | 82 nM |  | 
COc1c([C@@H]2O[C@H](CO)[C@@H](F)[C@H](O)[C@H]2O)cc(Cc2ccc3c(c2)OCCO3)c2c1CCO2 [Compound 65, (2S,3R,4R,5S,6R)-2-(7-((2,3-dihydrobenzo[b][1,4]dioxin-6-yl)methyl)-4-methoxy-2,3-dihydrobenzofuran-5-yl)-5-fluoro-6-(hydroxymethyl)tetrahydro-2H-pyran-3,4-diol] | 43 nM | 9 nM |  | 
[2H]C([2H])(c1ccc2c(c1)CCCO2)c1cc([C@@H]2O[C@H](CO)[C@@H](F)[C@H](O)[C@H]2O)ccc1CC [Compound 169] |  |  | 37.2% @ 0.3 μM | 72.7% @ 0.3 μM
COc1cc(Cl)c(Cc2cc3c(s2)CCN(C(=O)N2CCCC2)C3)cc1[C@@H]1O[C@H](CO)[C@@H](F)[C@H](O)[C@H]1O [Compound 96] |  |  | 29.1% @ 0.3 μM | 18.2% @ 0.3 μM
COc1cc(OC)c([C@@H]2O[C@H](CO)[C@@H](F)[C@H](O)[C@H]2O)cc1Cc1cc2c(s1)CCN(C(C)=O)C2 [Compound 82] |  |  | 42.2% @ 0.3 μM | 58.9% @ 0.3 μM
OC[C@H]1O[C@@H](c2cc(Cc3ccc4c(c3)OCCO4)c3c(c2O)CCO3)[C@H](O)[C@@H](O)[C@@H]1F [Compound 61, (2S,3R,4R,5S,6R)-2-(7-((2,3-dihydrobenzo[b][1,4]dioxin-6-yl)methyl)-4-hydroxy-2,3-dihydrobenzofuran-5-yl)-5-fluoro-6-(hydroxymethyl)tetrahydro-2H-pyran-3,4-diol] | 14 nM | 3 nM |  | 
